# Experimental data reported in US20260007133A1, “HERBICIDAL COMPOSITION COMPRISING AZINE COMPOUNDS” (BASF SE, priority 2022, published 2026).
# Legend:
# Type in all cases: in vivo
# [1] = tested on: Ipomoea hederacea; assay: Greenhouse pre-emergence (PRE) herbicidal test on IPOHE; settings: Ipomoea hederacea, pre-emergence
# Description: (§1) The culture containers used were plastic pots containing loamy sand with approximately 3.0% of humus as substrate. The seeds of the test plants were sown separately for each species.
# (§2) For the pre-emergence treatment, the active compounds, suspended or emulsified in water, were applied directly after sowing by means of finely distributing nozzles. The containers were irrigated gently to promote germination and growth and subsequently covered with transparent plastic hoods until the plants had rooted. This cover caused uniform germination of the test plants unless this was adversely affected by the active compounds.
# (§3) Depending on the species, the plants were kept at 10-25° C. and 20-35° C., respectively.
# (§4) The test period extended over 2 to 4 weeks. During this time, the plants were tended and their response to the individual treatments was evaluated.
# (§5) Evaluation was carried out using a scale from 0 to 100. 100 means no emergence of the plants, or complete destruction of at least the above-ground parts, and 0 means no damage or normal course of growth. A good herbicidal activity is given at values of at least 70, and very good herbicidal activity is given at values of at least 85.
# (§6) If not stated differently, the respective components A and B, and if appropriate, C were formulated as a 5% by weight strength emulsion concentrate and, with addition of the amount of solvent system, introduced into the spray liquor used for applying the active compound.
# (§7) As indicated application was either post emergent (POST) at the respective growth stage (GS) of the weed (BBCH code), or pre-emergent (PRE).
# (§8) Assessment was 20 days after treatment (DAT).
# [2] = tested on: Euphorbia heterophylla; assay: Greenhouse post-emergence (POST) herbicidal test on EPHHL; settings: Euphorbia heterophylla, post-emergence, 480 h, POST, EPHHL, 20 DAT
# Method in brief: (§9)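 POST spray at 3–15 cm plant height, BBCH stage as given; loamy sand, ~3.0% humus; 10-25° C / 20-35° C per species; 0–100 damage scale; read 20 DAT.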
# [3] = tested on: Setaria viridis; assay: Greenhouse post-emergence (POST) herbicidal test on SETVI; settings: 480 h, 20 DAT
# Experimental: as §1
# (§10) For the post-emergence treatment, the test plants were grown to a plant height of from 3 to 15 cm, depending on the plant habit, and only then treated with the active compounds which had been suspended or emulsified in water. To this end, the test plants were either sown directly, and grown in the same containers, or they were first grown separately as seedlings and transplanted into the test containers a few days prior to treatment.
# as §3, §4, §5, §6, §7, §8
# [4] = tested on: Euphorbia heterophylla; assay: Greenhouse pre-emergence (PRE) herbicidal test on EPHHL; settings: Euphorbia heterophylla, pre-emergence
# Method in brief: (§11)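 Scoring ran from 0 (normal growth) to 100 (no emergence or above-ground parts fully destroyed) and was done 20 DAT. Application was pre-emergent in pots of loamy sand (~3.0% humus) sown per species. Plants grew at 10-25° C or 20-35° C by species.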
# [5] = tested on: Abutilon theophrasti; assay: Greenhouse pre-emergence (PRE) herbicidal test on ABUTH; settings: Abutilon theophrasti, pre-emergence
# Method in brief: as §11
# [6] = tested on: Echinochloa crus-galli; assay: Greenhouse pre-emergence (PRE) herbicidal test on ECHCG; settings: Echinochloa crus-galli, pre-emergence, 480 h, PRE, ECHCG, 20 DAT
# [7] = tested on: Commelina benghalensis; assay: Greenhouse post-emergence (POST) herbicidal test on COMBE; settings: 480 h, 20 DAT
# Experimental: as §1, §10, §3, §4, §5, §6, §7, §8
# [8] = tested on: Geranium pusillum; assay: Greenhouse post-emergence (POST) herbicidal test on GERPU; settings: Geranium pusillum, post-emergence, 480 h, POST, GERPU, use rate 50 gai/ha, 20 DAT
# Method in brief: as §9
# [9] = tested on: Echinochloa crus-galli; assay: Greenhouse post-emergence (POST) herbicidal test on ECHCG; settings: Echinochloa crus-galli, post-emergence, 480 h, POST, ECHCG, use rate 100 gai/ha, 20 DAT; read-out: % activity
# Method in brief: as §9
# [10] = tested on: Digitaria sanguinalis; assay: Greenhouse post-emergence (POST) herbicidal test on DIGSA; settings: Digitaria sanguinalis, post-emergence, 480 h, POST, DIGSA, use rate 100 gai/ha, 20 DAT
# Method in brief: as §9
# [11] = tested on: Lolium multiflorum; assay: Greenhouse pre-emergence (PRE) herbicidal test on LOLMU; settings: Lolium multiflorum, pre-emergence, LOLMU PRE
# Method in brief: as §11
# [12] = tested on: Avena fatua; assay: Greenhouse pre-emergence (PRE) herbicidal test on AVEFA
# Description: as §1, §2, §3, §4, §5, §6, §7, §8
# [13] = tested on: Alopecurus myosuroides; assay: Greenhouse pre-emergence (PRE) herbicidal test on ALOMY; settings: Alopecurus myosuroides, pre-emergence, ALOMY PRE
# Method in brief: as §11
# [14] = tested on: Geranium pusillum; assay: Greenhouse pre-emergence (PRE) herbicidal test on GERPU; settings: Geranium pusillum, pre-emergence, GERPU PRE
# Description: as §1, §2, §3, §4, §5, §6, §7, §8
# [15] = tested on: Brachiaria decumbens; assay: Greenhouse pre-emergence (PRE) herbicidal test on BRADC; settings: Urochloa decumbens, BRADC PRE, use rate 400 gai/ha
# Description: as §1, §2, §3, §4, §5, §6, §7, §8
# [16] = tested on: Commelina benghalensis; assay: Greenhouse pre-emergence (PRE) herbicidal test on COMBE; settings: Commelina benghalensis, pre-emergence, COMBE PRE, use rate 1200 gai/ha
# Method in brief: as §11
# [17] = tested on: Galium aparine; assay: Greenhouse pre-emergence (PRE) herbicidal test on GALAP; settings: Galium aparine, pre-emergence; GALAP PRE, use rate 1200 gai/ha
# Description: as §1, §2, §3, §4, §5, §6, §7, §8
# [18] = use rate 8 gai/ha, read-out: % activity
structure (smiles),measurement,setting,value
"Cn1nc(C(F)(F)F)c(CS(=O)(=O)C2=NOC(C)(C)C2)c1OC(F)F [Pyroxasulfone, pyroxasulfone]",inhibition at 16 g/ha,"[1]; 480 h, PRE, IPOHE, use rate 16 gai/ha, 20 DAT",0%
same,inhibition at 8 g/ha,[2]; [18],10%
same,inhibition at 16 g/ha,[2]; use rate 16 gai/ha,25%
same,inhibition at 4 g/ha,[3]; use rate 4 gai/ha,30%
same,inhibition at 8 g/ha,[3]; use rate 8 gai/ha,40%
same,inhibition at 16 g/ha,[3]; use rate 16 gai/ha,80%
same,inhibition at 4 g/ha,"[4]; 480 h, PRE, EPHHL, use rate 4 gai/ha, 20 DAT",25%
same,inhibition at 8 g/ha,"[4]; 480 h, PRE, EPHHL, use rate 8 gai/ha, 20 DAT, read-out: % activity",20%
same,inhibition at 16 g/ha,"[4]; 480 h, PRE, EPHHL, use rate 16 gai/ha, 20 DAT",25%
same,inhibition at 4 g/ha,"[5]; 480 h, PRE, ABUTH, use rate 4 gai/ha, 20 DAT",0%
same,inhibition at 8 g/ha,"[5]; 480 h, PRE, ABUTH, use rate 8 gai/ha, 20 DAT, read-out: % activity",0%
same,inhibition at 16 g/ha,"[5]; 480 h, PRE, ABUTH, use rate 16 gai/ha, 20 DAT",10%
same,inhibition at 4 g/ha,[6]; use rate 4 gai/ha,80%
same,inhibition at 8 g/ha,[6]; [18],80%
same,inhibition at 16 g/ha,[7]; use rate 16 gai/ha,45%
"O=C(Nc1ccc(F)cc1F)c1cccnc1Oc1cccc(C(F)(F)F)c1 [Diflufenican, diflufenican]",inhibition at 50 g/ha,[8],25%
same,inhibition at 100 g/ha,[9],40%
same,inhibition at 100 g/ha,[10],35%
same,inhibition at 50 g/ha,[7]; use rate 50 gai/ha,25%
same,inhibition at 100 g/ha,[7]; use rate 100 gai/ha,20%
"CCC(C)(CC)c1cc(NC(=O)c2c(OC)cccc2OC)on1 [Isoxaben, isoxaben]",inhibition at 100 g/ha,[11]; use rate 100 gai/ha,0%
same,inhibition at 400 g/ha,[11]; use rate 400 gai/ha,0%
same,inhibition at 100 g/ha,[12]; use rate 100 gai/ha,0%
same,inhibition at 400 g/ha,[12]; use rate 400 gai/ha,0%
same,inhibition at 400 g/ha,[13]; use rate 400 gai/ha,15%
same,inhibition at 100 g/ha,[14]; use rate 100 gai/ha,15%
same,inhibition at 400 g/ha,[15],0%
"Nc1c([N+](=O)[O-])ccc(Oc2ccccc2)c1Cl [Aclonifen, aclonifen]",inhibition at 300 g/ha,[11]; use rate 300 gai/ha,10%
same,inhibition at 1200 g/ha,"[1]; IPOHE PRE, use rate 1200 gai/ha",0%
same,inhibition at 300 g/ha,[12]; use rate 300 gai/ha,0%
same,inhibition at 1200 g/ha,[12]; use rate 1200 gai/ha,0%
same,inhibition at 1200 g/ha,[16],85%
same,inhibition at 300 g/ha,[13]; use rate 300 gai/ha,0%
same,inhibition at 1200 g/ha,[13]; use rate 1200 gai/ha,50%
same,inhibition at 300 g/ha,"[4]; EPHHL PRE, use rate 300 gai/ha",20%
same,inhibition at 1200 g/ha,"[4]; EPHHL PRE, use rate 1200 gai/ha",50%
same,inhibition at 300 g/ha,[14]; use rate 300 gai/ha,30%
same,inhibition at 1200 g/ha,[14]; use rate 1200 gai/ha,65%
same,inhibition at 1200 g/ha,"[5]; ABUTH PRE, use rate 1200 gai/ha",35%
same,inhibition at 1200 g/ha,[17],45%
